# According to patent US20110165277A1, “Biological Materials and Uses Thereof” (priority 2008, published 2011):
# Experiment: Further sandalwood analogues: volatile fatty acid and methane production (Example 7, Table 14)
# Type: cell-based
# Procedure: Further testing of sandalwood analogues was conducted following the protocols described in Examples 3 and 5.
SMILES,Acetate (5 μg/ml),Butyrate (5 μg/ml),Methane (5 μg/ml),Propionate (5 μg/ml),TVFA (5 μg/ml),Acetate (50 μg/ml),Butyrate (50 μg/ml),Methane (50 μg/ml),Propionate (50 μg/ml),TVFA (50 μg/ml),Acetate (100 μg/ml),Butyrate (100 μg/ml),Methane (100 μg/ml),Propionate (100 μg/ml),TVFA (100 μg/ml),Acetate (500 μg/ml),Butyrate (500 μg/ml),Methane (500 μg/ml),Propionate (500 μg/ml),TVFA (500 μg/ml)
"CCC(=CCC1CC=C(C)C1(C)C)CO (stereo not drawn) [Bacdanol, 2-ethyl-4-(2,2,3-trimethyl-3-cyclopenten-1-yl)-2-buten-1-ol]",2037 μmol/g of feed added,438 μmol/g of feed added,934 μmol/g of feed added,444 μmol/g of feed added,2919 μmol/g of feed added,2049 μmol/g of feed added,458 μmol/g of feed added,1047 μmol/g of feed added,434 μmol/g of feed added,2942 μmol/g of feed added,2419 μmol/g of feed added,514 μmol/g of feed added,995 μmol/g of feed added,515 μmol/g of feed added,3448 μmol/g of feed added,2331 μmol/g of feed added,309 μmol/g of feed added,942 μmol/g of feed added,864 μmol/g of feed added,3503 μmol/g of feed added
"CC1=CCC(C=CC(C)C(C)O)C1(C)C (stereo not drawn) [Ebanol, 3-Methyl-5-(2,2,3-trimethyl-3-cyclopenten-1-yl)-4-penten-2-ol]",2136 μmol/g of feed added,488 μmol/g of feed added,952 μmol/g of feed added,427 μmol/g of feed added,3051 μmol/g of feed added,2129 μmol/g of feed added,474 μmol/g of feed added,934 μmol/g of feed added,436 μmol/g of feed added,3039 μmol/g of feed added,2430 μmol/g of feed added,458 μmol/g of feed added,833 μmol/g of feed added,533 μmol/g of feed added,3421 μmol/g of feed added,2333 μmol/g of feed added,332 μmol/g of feed added,683 μmol/g of feed added,939 μmol/g of feed added,3604 μmol/g of feed added
"CC1=CCC(CCC(C)C(C)O)C1(C)C (stereo not drawn) [Sandalore, 5-(2,2,3-Trimethyl-3-cyclopentenhyl)-3-methylpentan-2-ol]",2118 μmol/g of feed added,487 μmol/g of feed added,951 μmol/g of feed added,431 μmol/g of feed added,3036 μmol/g of feed added,1972 μmol/g of feed added,453 μmol/g of feed added,1086 μmol/g of feed added,409 μmol/g of feed added,2834 μmol/g of feed added,2119 μmol/g of feed added,432 μmol/g of feed added,1174 μmol/g of feed added,471 μmol/g of feed added,3023 μmol/g of feed added,2249 μmol/g of feed added,305 μmol/g of feed added,902 μmol/g of feed added,897 μmol/g of feed added,3451 μmol/g of feed added
